Test results taken from article PMC10831071, “Reaction hijacking inhibition of Plasmodium falciparum asparagine tRNA synthetase” (Nature Communications, 2024).
Values joined by “and” are separate entries in the source; they are usually repeats but may differ in a detail not shown here. Equal entries are not always repeated.

Assays:
[1] = target: T1, HsAsnRS (Homo sapiens, UniProt O43776); assay: LC-MS of Asn-OSM-S-106 adduct generated by recombinant HsAsnRS; format: biochemical
T1 construct: HsAsnRS (residues M1–P548) and CDHsAsnRS (residues A98–P548); His6 (N, cleaved yes); made in house; host or cells: E. coli BL21 (DE3), pET11a
T1 sequence (O43776 1-548): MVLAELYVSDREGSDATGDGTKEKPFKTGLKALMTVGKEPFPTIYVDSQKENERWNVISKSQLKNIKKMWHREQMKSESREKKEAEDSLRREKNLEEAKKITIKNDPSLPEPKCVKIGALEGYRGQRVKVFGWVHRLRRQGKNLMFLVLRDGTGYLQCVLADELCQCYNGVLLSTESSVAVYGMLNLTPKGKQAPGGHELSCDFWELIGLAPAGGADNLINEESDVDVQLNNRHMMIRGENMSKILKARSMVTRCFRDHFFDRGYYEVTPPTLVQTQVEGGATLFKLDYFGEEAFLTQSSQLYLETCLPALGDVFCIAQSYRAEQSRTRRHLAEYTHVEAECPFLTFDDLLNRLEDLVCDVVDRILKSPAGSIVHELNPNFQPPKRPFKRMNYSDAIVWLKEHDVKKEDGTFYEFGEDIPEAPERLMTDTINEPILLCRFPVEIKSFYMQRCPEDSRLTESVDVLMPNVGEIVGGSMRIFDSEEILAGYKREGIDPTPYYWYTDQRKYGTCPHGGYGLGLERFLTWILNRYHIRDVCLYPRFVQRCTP
Procedure: The reaction buffer consists of 100 mM HEPES pH 7.5 (KOH), 160 mM KCl, 3.5 mM MgCl2, 1 mM DTT. The mixture was incubated at 37 °C for 1 h. After that, an equal volume of 8 M urea was added to the mixture. Finally, trifluoroacetic acid was added to a final concentration of 1%. The sample was centrifuged at 15,000 × g for 10 min and the supernatant was used for LCMS analysis. […] Quantification of the conjugates was done using Skyline (version 21.1.0.278).
Samples were analyzed by reversed-phase ultra-high-performance liquid chromatography (UHPLC) coupled to tandem mass spectrometry (MS/MS) employing a Vanquish UHPLC linked to an Orbitrap Fusion Lumos mass spectrometer (Thermo Fisher Scientific, San Jose, CA, USA) operated in positive ion mode. Solvent A was 0.1% formic acid/10 mM ammonium acetate in water and solvent B was 0.1% formic acid/10 mM ammonium acetate in acetonitrile. […] Finally, the percentage of solvent B was decreased to 0% in 0.1 min and maintained for 3.9 min.
MS experiments were performed using a Heated Electrospray Ionization (HESI) source. The spray voltage, flow rate of sheath, auxiliary and sweep gases were 3.5 kV, 20, 6, and 1 ‘arbitrary’ unit(s), respectively. The ion transfer tube and vaporizer temperatures were maintained at 350 °C and 400 °C, respectively, and the S-Lens RF level was set at 50%. […]

[2] = system: PfNT4 cKD P. falciparum line; assay: microbe, parasite or virus in culture; format: cell-based, Plasmodium falciparum; conditions: for growth after 72 h exposure, normalised to no drug: PfNT4 K/D, replicates; for IC50: PfNT4 line, individual repeats
Excerpt: Conditional knockdown (cKD) P. falciparum lines were generated for the cytosolic AsnRS (PF3D7_0211800), cytosolic AlaRS (PF3D7_1367700), cytosolic GlyRS (GlyRS; PF3D7_1420400), PfNT4 (PF3D7_0103200), P. falciparum glutamate dehydrogenase 3 (GDH3; PF3D7_0802000), and P. falciparum carbonic anhydrase (CA, PF3D7_1140000) by fusing the coding sequences and non-coding RNA aptamer sequences in the 3’-UTR, permitting translation regulation using the TetR-DOZI system[59],[60]. Gene editing was achieved by CRISPR/SpCas9 using the linear pSN054 vector that contains cloning sites for the left homology region (LHR) and the right homology region (RHR) as well a target-specific guide RNA under control of the T7 promoter. Cloning into the pSN054 donor vector was carried out following described procedures[59],[60]. The vector includes V5-2xHA epitope tags, a 10x tandem array of TetR aptamers upstream of an Hsp86 3’UTR, and a multicistronic cassette for expression of TetR-DOZI (translation regulation), blasticidin S-deaminase (selection marker) and a Renilla luciferase (RLuc) reporter. All primer and synthetic fragment sequences that were generated using the BioXP™ system and IDT gBlocks™ are included in Supplementary Table 9. The final constructs were sequence-verified and further confirmed by restriction digests.
Transfection into Cas9- and T7 RNA polymerase-expressing NF54 parasites was carried out by pre-loading red blood cells (RBCs) with the donor vector[61]. […] Cultures were monitored by Giemsa smears and RLuc measurements.
DMSO- and dihydroartemisinin-treatment (0.5 µM) served as reference controls.

[3] = Stability in rat hepatocytes; format: in vitro ADME

Nc1ncnc2cc(-c3cccc(S(N)(=O)=O)c3)sc12 [OSM-S-106]
MS peak area (Asn-OSM-S-106 adduct) ([1]; 1 μM HsAsnRS, 10 μM OSM-S-106, 1 h, 37 °C, individual experiments): 3564405 and 3396334 and 2555457 and 1397007 | Asn-OSM-S-106 signal intensity with HsAsnRS, lower than with PfAsnRS ([1]; 10 μM OSM-S-106, ATP, Asn, E. coli tRNA): 18 fold | growth after 72 h exposure, normalised to no drug ([2]; 500 nM aTc, 0.488281 nM): 115.319 and 105.291 and 111.528 | growth after 72 h exposure, normalised to no drug ([2]; 500 nM aTc, 0.976562 nM): 113.41 and 102.567 and 108.441 | growth after 72 h exposure, normalised to no drug ([2]; 500 nM aTc, 1.95312 nM): 108.529 and 100.357 and 100.986 | growth after 72 h exposure, normalised to no drug ([2]; 500 nM aTc, 3.90625 nM): 110.366 and 98.6162 and 100.564 | growth after 72 h exposure, normalised to no drug ([2]; 500 nM aTc, 7.8125 nM): 101.389 and 100.305 and 97.246 | growth after 72 h exposure, normalised to no drug ([2]; 500 nM aTc, 31.25 nM): 11.2119 and 13.2391 and 14.7628 | growth after 72 h exposure, normalised to no drug ([2]; 500 nM aTc, 62.5 nM): 1.785 and 2.763 and 1.994 | growth after 72 h exposure, normalised to no drug ([2]; 500 nM aTc, 125 nM): 0.2373 and 0.4204 and 0.2459 | growth after 72 h exposure, normalised to no drug ([2]; 500 nM aTc, 250 nM): 0.2337 and 0.2689 and 0.2037 | growth after 72 h exposure, normalised to no drug ([2]; no aTc, 0.488281 nM): 115.9 and 108.506 and 115.265 | growth after 72 h exposure, normalised to no drug ([2]; no aTc, 0.976562 nM): 107.637 and 104.459 and 111.884 | growth after 72 h exposure, normalised to no drug ([2]; no aTc, 1.95312 nM): 103.621 and 102.992 and 106.407 | growth after 72 h exposure, normalised to no drug ([2]; no aTc, 3.90625 nM): 93.8123 and 99.6909 and 104.029 | growth after 72 h exposure, normalised to no drug ([2]; no aTc, 7.8125 nM): 30.4373 and 37.6726 and 51.4607 | growth after 72 h exposure, normalised to no drug ([2]; no aTc, 31.25 nM): 0.5987 and 0.9711 and 0.5614 | growth after 72 h exposure, normalised to no drug ([2]; no aTc, 62.5 nM): 0.1353 and 0.2821 and 0.05072 | growth after 72 h exposure, normalised to no drug ([2]; no aTc, 125 nM): 0.1322 and 0.3476 and 0.0472 | growth after 72 h exposure, normalised to no drug ([2]; no aTc, 250 nM): 0.1415 and 0.3214 and 0.1916 | IC50 ([2]; 500 nM aTc): 20.5 nM and 21.4 nM | IC50 ([2]; Plasmodium falciparum, 1 nM, […] aTc or no aTc): 6.09 nM | IC50 ([2]; Plasmodium falciparum, 500 nM aTc): 19.9 nM | stability during incubation with rat hepatocytes [3]: stable
